From US20090227616A1, “INHIBITORS OF AKT ACTIVITY” (SMITHKLINE BEECHAM CORPORATION, a corporation, priority 2005, published 2009)
Values after ≈ are worked out from the molar mass of the structure shown.

Tests used:
[1] = tested on: HFF (normal human foreskin fibroblast); assay: Methylene Blue Growth Inhibition Assay; assay type: cell-based; conditions: 72 h, 3 days
Protocol: (§1) Tumor cell lines used in this assay were BT474 (human breast carcinoma) and LNCaP (lymph node metastasis of prostate cancer). HFF (normal human foreskin fibroblast) was also included. All cell lines were cultured in RPMI 1640 media (Invitrogen Corporation 22400-071) containing 10% Fetal Bovine Serum (FBS) at 37° C. in a humidified 5% CO2 incubator. Cells were harvested using trypsin/EDTA, counted using a hemacytometer and plated in 96-well tissue culture plates (Costar 35-3075), 100 uL per well, at the following densities: BT474 15,000 cells/well, LNCaP 5,000 cells/well and HFF 5,000 cells/well. 10 mM stocks of compounds in DMSO were serially diluted in DMSO through nine 3-fold dilutions in 96-well plates (Costar Corning 3363), and stored at −80C. The next day, compound dilutions were thawed and 4 uL of each transferred to 662 uL RPMI 1640+100 ug/mL gentamicin, resulting in twice the final required test concentrations. 100 uL of compounds diluted in RPMI 1640 were added to all cell lines. The final concentration of DMSO in all wells, including controls, was 0.3%. Cells were incubated at 37C, 5% CO2 for 3 days. Medium was removed by aspiration. Cell biomass was estimated by staining cells with 80 uL methylene blue (Sigma M9140, 0.5% in 50:50 ethanol:water), and incubating at room temperature for 1 hour. Stain was aspirated and the plates rinsed by immersion in water, then air-dried. Stain was released from cells by adding 100 uL of solubilizing solution (1% N-lauroyl sarcosine, sodium salt, Sigma L5125, in PBS) and incubating at room temperature for at least 30 minutes. Plates were shaken and the optical density at 620 nm was measured on a microplate reader. Percent inhibition of cell growth was calculated relative to vehicle-treated control wells. Concentration of compound that inhibits 50% of cell growth (IC50) was interpolated using non-linear regression (Levenberg-Marquadt) and the equation, y=Vmax*(1−(x̂n/K̂n+x̂n)))+Y2. [Ref: Mager, M. E. (1972) Data Analysis in Biochemistry and Biophysics. New York: Academic Press]

[2] = tested on: BT474 (human breast carcinoma); assay: Methylene Blue Growth Inhibition Assay; assay type: cell-based; conditions: BT-474, 72 h, BT474, 3 days
Protocol: as §1

[3] = tested on: LNCaP (lymph node metastasis of prostate cancer); assay: Methylene Blue Growth Inhibition Assay; assay type: cell-based; conditions: Homo sapiens, 72 h, 3 days
Protocol: as §1

[4] = Solubility in 50 mM phosphate buffer at pH 7.4; assay type: physicochemical; conditions: aqueous buffer

## CCn1c(-c2nonc2N)nc2c(C#CC(C)(C)O)ncc(OCC(F)CN)c21 (single isomer, unassigned) [Example 17, 4-[7-[(3-amino-2-(−)-fluoropropyl)oxy]-2-(4-amino-1,2,5-oxadiazol-3-yl)-1-ethyl-1H-imidazo[4,5-c]pyridin-4-yl]-2-methyl-3-butyn-2-ol]
[1]
  IC50: 6.25 µM
[2]
  IC50: 0.022 µM
[3]
  IC50: 0.012 µM
[4]
  solubility: 92 µM (≈ 37.1 µg/mL)

## CCn1c(-c2nonc2N)nc2c(C#CC(C)(C)O)ncc(OCCC(N)C3CCSCC3)c21 (single isomer, unassigned; (-)) [Example 14, (−)-4-(2-(4-amino-1,2,5-oxadiazol-3-yl)-7-{[3-amino-3-(tetrahydro-2H-thiopyran-4-yl)propyl]oxy}-1-ethyl-1H-imidazo[4,5-c]pyridin-4-yl)-2-methyl-3-butyn-2-ol]
[1]
  IC50: 19.2 µM
[2]
  IC50: 0.264 µM
[3]
  IC50: 0.056 µM
[4]
  solubility: 151 µM (≈ 73.3 µg/mL)

## CCn1c(-c2nonc2N)nc2c(-c3ccccc3)ncc(OCCCN3CCOCC3)c21 [Compound R, 4-(1-ethyl-7-{[3-(4-morpholinyl)propyl]oxy}-4-phenyl-1H-imidazo[4,5-c]pyridin-2-yl)-1,2,5-oxadiazol-3-amine, reference compound]
[1]
  IC50: 19.9 µM

## CCn1c(-c2nonc2N)nc2c(-c3ccccc3)ncc(OCC(O)CN3CCOCC3)c21 (stereo not shown) [Compound S, 1-{[2-(4-amino-1,2,5-oxadiazol-3-yl)-1-ethyl-4-phenyl-1H-imidazo[4,5-c]pyridin-7-yl]oxy}-3-(4-morpholinyl)-2-propanol, reference compound]
[1]
  IC50: > 30 µM

## CCn1c(-c2nonc2N)nc2c(-c3ccccc3)ncc(OCCN3CCOCC3)c21 [Compound T, 4-(1-ethyl-7-([2-(4-morpholinyl)ethyl]oxy)-4-phenyl-1H-imidazo[4,5-c]pyridin-2-yl)-1,2,5-oxadiazol-3-amine, reference compound]
[1]
  IC50: 18.9 µM

## CCn1c(-c2nonc2N)nc2cncc(OC3CCNCC3)c21 [Compound U, 4-[1-ethyl-7-(piperidin-4-yloxy)-1H-imidazo[4,5-c]pyridine-2-yl]-furazan-3-ylamine, reference compound]
[1]
  IC50: 6.47 µM

## CCn1c(-c2nonc2N)nc2c(-c3ccccc3)ncc(OCC3CCCNC3)c21 (stereo not shown) [Compound V, 4-{1-ethyl-4-phenyl-7-[(3-piperidinylmethyl)oxy]-1H-imidazo-[4,5-c]pyridin-2-yl}-1,2,5-oxadiazol-3-amine, reference compound]
[1]
  IC50: 0.57 µM

## CCn1c(-c2nonc2N)nc2c(C#CC(C)(C)O)ncc(OCCCCN)c21 [Compound W, 4-[7-[(4-aminobutyl)oxy]-2-(4-amino-1,2,5-oxadiazol-3-yl)-1-ethyl-1H-imidazo[4,5-c]pyridin-4-yl}-2-methyl-3-butyn-2-ol, reference compound]
[1]
  IC50: 22.1 µM

## CCn1c(-c2nonc2N)nc2c(C#CC(C)(C)O)ncc(OCCCN)c21 [Compound X, 4-{2-(4-amino-1,2,5-oxadiazol-3-yl)-7-[(3-aminopropyl)oxy]-1-ethyl-1H-imidazo[4,5-c]pyridin-4-yl}-2-methyl-3-butyn-2-ol, reference compound]
[1]
  IC50: 18.1 µM

## CCn1c(-c2nonc2N)nc2c(C#CC(C)(C)O)ncc(OCC3CCNCC3)c21 [Compound Y, 4-{2-(4-amino-1,2,5-oxadiazol-3-yl)-1-ethyl-7-[(4-piperidinylmethyl)oxy]-1H-imidazo[4,5-c]pyridin-4-yl}-2-methyl-3-butyn-2-ol, reference compound]
[1]
  IC50: > 30 µM

## CCn1c(-c2nonc2N)nc2c(C#CC(C)(C)O)ncc(OCCCNCCc3ccc(OC)cc3)c21 [Compound Z, 4-(2-(4-amino-1,2,5-oxadiazol-3-yl)-1-ethyl-7-{[3-({2-[4-(methyloxy)phenyl]ethyl}amino)propyl]oxy}-1H-imidazo[4,5-c]pyridin-4-yl)-2-methyl-3-butyn-2-ol, reference compound]
[1]
  IC50: 5.51 µM

## CCn1c(-c2nonc2N)nc2c(C#CC(C)(C)O)ncc(OCCCNC3CCCC3)c21 [Example 3, 4-(2-(4-amino-1,2,5-oxadiazol-3-yl)-7-{[3-(cyclopentylamino)propyl]oxy}-1-ethyl-1H-imidazo[4,5-c]pyridin-4-yl)-2-methyl-3-butyn-2-ol]
[1]
  IC50: > 30 µM
[2]
  IC50: 0.295 µM
[3]
  IC50: 0.052 µM
[4]
  solubility: 210 µM (≈ 95.2 µg/mL)

## CCn1c(-c2nonc2N)nc2c(C#CC(C)(C)O)ncc(OCC[C@@H](N)C(C)C)c21 [Example 4, 4-[7-{[(3R)-3-amino-4-methylpentyl]oxy}-2-(4-amino-1,2,5-oxadiazol-3-yl)-1-ethyl-1H-imidazo[4,5-c]pyridin-4-yl]-2-methyl-3-butyn-2-ol]
[1]
  IC50: 8.1 µM
[2]
  IC50: 0.171 µM
[3]
  IC50: 0.036 µM
[4]
  solubility: 206 µM (≈ 88.1 µg/mL)

## CCn1c(-c2nonc2N)nc2c(C#CC(C)(C)O)ncc(OCCCNC3CCC3)c21 [Example 5, 4-(2-(4-amino-1,2,5-oxadiazol-3-yl)-7-{[3-(cyclobutylamino)propyl]oxy}-1-ethyl-1H-imidazo[4,5-c]pyridin-4-yl)-2-methyl-3-butyn-2-ol]
[1]
  IC50: 25.9 µM
[2]
  IC50: 0.508 µM
[3]
  IC50: 0.058 µM
[4]
  solubility: 86 µM (≈ 37.8 µg/mL)

## CCn1c(-c2nonc2N)nc2c(C#CC(C)(C)O)ncc(OC[C@@H](C)CNC3CC3)c21 [Example 6, 4-(2-(4-amino-1,2,5-oxadiazol-3-yl)-7-{[(2S)-3-(cyclopropylamino)-2-methylpropyl]oxy}-1-ethyl-1H-imidazo[4,5-c]pyridin-4-yl)-2-methyl-3-butyn-2-ol]
[1]
  IC50: 11.5 µM
[2]
  IC50: 0.593 µM
[3]
  IC50: 0.066 µM
[4]
  solubility: 27 µM (≈ 11.9 µg/mL)

## CCn1c(-c2nonc2N)nc2c(C#CC(C)(C)O)ncc(OCC(C)(C)CN)c21 [Example 7, 4-[7-[(3-amino-2,2-dimethylpropyl)oxy]-2-(4-amino-1,2,5-oxadiazol-3-yl)-1-ethyl-1H-imidazo[4,5-c]pyridin-4-yl]-2-methyl-3-butyn-2-ol]
[1]
  IC50: 26.2 µM
[2]
  IC50: 0.137 µM
[3]
  IC50: 0.031 µM
[4]
  solubility: 209 µM (≈ 86.4 µg/mL)

## CCn1c(-c2nonc2N)nc2c(C#CC(C)(C)O)ncc(OC[C@@H](C)CN)c21 [Example 8, 4-[7-{[(2S)-3-amino-2-methylpropyl]oxy}-2-(4-amino-1,2,5-oxadiazol-3-yl)-1-ethyl-1H-imidazo[4,5-c]pyridin-4-yl]-2-methyl-3-butyn-2-ol]
[1]
  IC50: 22.4 µM
[2]
  IC50: 0.202 µM
[3]
  IC50: 0.053 µM
[4]
  solubility: 141 µM (≈ 56.3 µg/mL)

## CCn1c(-c2nonc2N)nc2c(C#CC(C)(C)O)ncc(OCC[C@H](C)N)c21 [Example 9, 4-[7-{[(3S)-3-aminobutyl]oxy}-2-(4-amino-1,2,5-oxadiazol-3-yl)-1-ethyl-1H-imidazo[4,5-c]pyridin-4-yl]-2-methyl-3-butyn-2-ol]
[1]
  IC50: 14.5 µM
[2]
  IC50: 0.504 µM
[3]
  IC50: 0.071 µM
[4]
  solubility: 119 µM (≈ 47.5 µg/mL)

## CCn1c(-c2nonc2N)nc2c(C#CC(C)(C)O)ncc(OCCCNCC3CC3)c21 [Example 10, 4-[2-(4-amino-1,2,5-oxadiazol-3-yl)-7-({3-[(cyclopropylmethyl)amino]propyl}oxy)-1-ethyl-1H-imidazo[4,5-c]pyridin-4-yl]-2-methyl-3-butyn-2-ol]
[1]
  IC50: 17.5 µM
[2]
  IC50: 0.249 µM
[3]
  IC50: 0.066 µM
[4]
  solubility: 140 µM (≈ 61.5 µg/mL)

## CCCC(CN)COc1cnc(C#CC(C)(C)O)c2nc(-c3nonc3N)n(CC)c12 (stereo not shown) [Example 11, 4-[7-{[2-(aminomethyl)pentyl]oxy}-2-(4-amino-1,2,5-oxadiazol-3-yl)-1-ethyl-1H-imidazo[4,5-c]pyridin-4-yl]-2-methyl-3-butyn-2-ol]
[1]
  IC50: 15 µM
[2]
  IC50: 0.225 µM
[3]
  IC50: 0.057 µM
[4]
  solubility: 203 µM (≈ 86.8 µg/mL)

## CCn1c(-c2nonc2N)nc2c(C#CC(C)(C)O)ncc(OCC(CN)CC(C)C)c21 (stereo not shown) [Example 12, 4-[7-{[2-(aminomethyl)-4-methylpentyl]oxy}-2-(4-amino-1,2,5-oxadiazol-3-yl)-1-ethyl-1H-imidazo[4,5-c]pyridin-4-yl]-2-methyl-3-butyn-2-ol]
[1]
  IC50: 26.4 µM
[2]
  IC50: 0.556 µM
[3]
  IC50: 0.081 µM
[4]
  solubility: 164 µM (≈ 72.4 µg/mL)

## CCCCC(CN)COc1cnc(C#CC(C)(C)O)c2nc(-c3nonc3N)n(CC)c12 (stereo not shown) [Example 13, 4-[7-{[2-(aminomethyl)hexyl]oxy}-2-(4-amino-1,2,5-oxadiazol-3-yl)-1-ethyl-1H-imidazo[4,5-c]pyridin-4-yl]-2-methyl-3-butyn-2-ol]
[1]
  IC50: 6.65 µM
[2]
  IC50: 0.088 µM
[3]
  IC50: 0.032 µM
[4]
  solubility: 108 µM (≈ 47.7 µg/mL)
